Measured values from ChEMBL document CHEMBL4732091, “Design, synthesis and biological evaluation of novel thiosemicarbazone-indole derivatives targeting prostate cancer cells” (Eur J Med Chem, 2021).
Active and inactive are the calls of the source. The rule behind the calls is not given here.

Tests used:
DU-145 [1] = test: Antiproliferative activity against human DU-145 cells assessed as inhibition of cell proliferation measured after 24 to 72 hrs by MTT assay; type: functional, cell-based; details: dose 0.156-20 µM, time 24-72 hrs
PC-3 [2] = test: Antiproliferative activity against human PC-3 cells assessed as inhibition of cell proliferation measured after 72 hrs by MTT assay; type: functional, cell-based; details: PC-3, 72 h
ECa-109 cell line = test: Antiproliferative activity against human ECa-109 cell line cells assessed as inhibition of cell proliferation measured after 72 hrs by MTT assay; type: functional, cell-based; details: ECa-109, 72 h
PC-3 [3] = test: Antiproliferative activity against human PC-3 cells assessed as reduction in colony formation at 12.5 to 50 nM measured after 6 days by crystal violet staining based colony assay; type: functional, cell-based; details: dose 12.5-50 nM, time 6.0 day
PC-3 [4] = test: Induction of cell cycle arrest in human PC-3 cells assessed as accumulation at G1/S phase at 125 nM measured after 48 hrs by propidium iodide staining based flowcytometry method (reference value: 19.23%); type: functional
DU-145 [5] = test: Induction of cell cycle arrest in human DU-145 cells assessed as accumulation at G1/S phase measured after 48 hrs by PI staining based Flowcytometry method; type: functional; details: dose 1.5-6 µM
DU-145 [6] = test: Induction of apoptosis in human DU-145 cells assessed as cell rounding at 0.5 to 2 uM measured after 72 hrs by Hoechst staining based fluorescence method; type: functional; details: dose 0.5-2 µM
PC-3 [7] = test: Induction of apoptosis in human PC-3 cells assessed as late apoptotic cells at 25 nM measured after 72 hrs by Annexin V-FITC/propidium iodide staining based flow cytometry method (reference value: 1.01 %); type: functional
DU-145 [8] = test: Induction of apoptosis in human DU-145 cells assessed as early apoptotic cells at 1 uM measured after 72 hrs by Annexin V-FITC/propidium iodide staining based flow cytometry method (reference value: 0.835 %); type: functional
DU-145 [9] = test: Induction of apoptosis in human DU-145 cells assessed as necrotic cells at 1 uM measured after 72 hrs by Annexin V-FITC/propidium iodide staining based flow cytometry method (reference value: 1.13 %); type: functional
PC-3 [10] = test: Induction of apoptosis in human PC-3 cells assessed as increased cleaved caspase 9/3 expression at 25 to 100 nM measured by Western blot assay; type: functional, cell-based; details: dose 25-100 nM
DU-145 [11] = test: Induction of apoptosis in human DU-145 cells assessed as increased cleaved caspase 9/3 at 0.5 to 2 uM measured by Western blot assay; type: functional, cell-based; details: dose 0.5-2 µM
PC-3 [12] = test: Induction of apoptosis in human PC-3 cells assessed as increase in p53 expression at 25 to 100 nM measured by Western blot assay; type: functional, cell-based; details: dose 25-100 nM
PC-3 [13] = test: Induction of ROS generation in human PC-3 cells assessed as increase in intracellular ROS level at 250 nM pretreated with NAC followed by compound treatment measured after 48 hrs by DCFH-DA staining based flowcytometry method; type: functional, cell-based
DU-145 [14] = test: Activation of MAPK signaling in human DU-145 cells assessed as increase in phosphorylated ERK 1/2 (Thr 202/Tyr 204) at 125 to 500 nM measured by Western blot assay; type: cell-based; details: filed as activator, dose 125-500 nM
[15] = Toxicity in C57BL/6 mouse assessed as change in body weight at 2 mg/kg, IG measured after 2 weeks; type: organism-based; details: in vivo, po, 336 h
[16] = Toxicity in C57BL/6 mouse assessed as effect on heart at 2 mg/kg, IG measured after 2 weeks by hematoxylin and eosin staining based imaging analysis; type: organism-based; details: in vivo, po, 336 h
[17] = Toxicity in C57BL/6 mouse assessed as effect on lung at 2 mg/kg, IG measured after 2 weeks by hematoxylin and eosin staining based imaging analysis; type: organism-based; details: in vivo, po, 336 h
DU-145 [18] = test: Antiproliferative activity against human DU-145 cells assessed as inhibition of cell proliferation at 0.156 to 20 uM by MTT assay; type: functional, cell-based; details: dose 0.156-20 µM, time 24-72 hrs, TDE = time-dependent effect
DU-145 [19] = test: Induction of apoptosis in human DU-145 cells assessed as formation of apoptotic bodies at 0.5 to 2 uM measured after 72 hrs by Hoechst staining based fluorescence method; type: functional, cell-based; details: dose 0.5-2 µM
PC-3 [20] = test: Induction of ROS generation in human PC-3 cells assessed as intracellular ROS level at 250 nM measured after 48 hrs by DCFH-DA staining based flowcytometry method (reference value: 55.2 %); type: functional

IC50 (PC-3 [2]): 0.054 µM
SMILES: Cc1ccc(/C=N/NC(=S)Nc2ccc(C(=O)NCCc3c(C)[nH]c4ccccc34)cc2)nc1
inhibition (DU-145 [1]): Dose-dependent effect
IC50 (ECa-109 cell line): 4.94 µM
inhibition (PC-3 [3]): Active
Activity (PC-3 [4]): 19.98%
Activity (DU-145 [5]): Dose-dependent effect
Activity (DU-145 [6]): Active
Activity (PC-3 [7]): 4.36%
Activity (DU-145 [8]): 10.6%
Activity (DU-145 [9]): 4.81%
Activity (PC-3 [10]): Active
Activity (DU-145 [11]): Active
Activity (PC-3 [12]): Active
Activity (PC-3 [13]): inactive
Activity (DU-145 [14]): Active
Activity [15]: Non-Toxic
Activity [16]: Non-Toxic
Activity [17]: Non-Toxic
Activity (DU-145 [18]): Tde
Activity (DU-145 [19]): Active
Activity (PC-3 [20]): 87%
